Source: patent publication US20090220996A1, “In vitro Assay Methods for Classifying Embryotoxicity of Compounds” (RELIANCE LIFE SCIENCES PVT LTD., priority 2007, published 2009)
Read-outs that look alike come from different tables or passages of the source.

Columns and labels:
[1] = cited from earlier work
[2] = tested on: 3T3 (mouse fibroblast cell line); conditions: Table 4; from the EST (Genschow, et al., 2000); cited from earlier work
[3] = tested on: hES, hEBs and HFF; experiment: CyQUANT/survival cytotoxicity, cell type not given; type: cell-based, human; conditions: cell type not stated; for cell survival: CyQUANT
Description: Cytotoxicity analysis of three cell types (hES, hEBs and HFF) was evaluated using the CyQUANT assay following compound treatment. All data were the mean of three independent experiments for each cell type. Data is represented as the mean±SE.

| Compound | Therap. range in human serum [1] | Therap. range in human serum ([1]; listed as busulfan) | Mouse EST IC50 - 3T3 [2] | cell survival percentage compared to controls ([3]; 50 μg/ml, FIG. 3B) | cell survival ([3]; 500 μg/ml, FIG. 4C) | cell survival ([3]; 100 μg/ml, FIG. 4D) |
| --- | --- | --- | --- | --- | --- | --- |
| CS(=O)(=O)OCCCCOS(C)(=O)=O [Busulfan, busulfan] | <0.6 µg/mL | less than 0.6 μg/ml | 4.8 µg/mL |  |  |  |
| Cn1c(=O)c2c(ncn2C)n(C)c1=O [Caffeine, caffeine] |  |  |  | significant decrease | 20% |  |
| NC(=O)NO [Hydroxyurea, hydroxyurea] | <9.88 µg/mL |  | 7.2 µg/mL |  |  |  |
| COc1ccc2c(c1)c(CC(=O)O)c(C)n2C(=O)c1ccc(Cl)cc1 [Indomethacin, indomethacin] |  |  | 27 µg/mL |  |  | 20-30% |
| CC1(C)S[C@@H]2[C@H](NC(=O)Cc3ccccc3)C(=O)N2[C@H]1C(=O)O [Penicillin G, penicillin G] | 300 to 500 µg/mL |  | 1586 µg/mL |  |  |  |
